Reference: patent publication US4372947A, “Antibiotic saframycin S and process for producing the same” (Arai; Tadashi, priority 1980, dated 1983)
Values after ≈ are worked out from the molar mass of the structure shown. “Also recorded” adds a separate entry of the source. Read-outs that look alike come from different tables or passages of the source.

Assays:
[1] = system: Staphylococcus aureus Smith; test: Antimicrobial spectrum (MIC); type: cell-based; conditions: 1% glucose nutrient agar, 37° C., 24 or 48 hours
Staphylococcus albus = test: Antimicrobial spectrum (MIC); type: cell-based; conditions: 1% glucose nutrient agar, 37° C., 24 or 48 hours
Staphylococcus citreus = test: Antimicrobial spectrum (MIC); type: cell-based; conditions: 1% glucose nutrient agar, 37° C., 24 or 48 hours
Streptococcus faecalis = test: Antimicrobial spectrum (MIC); type: cell-based; conditions: 1% glucose nutrient agar, 37° C., 24 or 48 hours
[2] = system: Streptococcus pyogenes Cook; test: Antimicrobial spectrum (MIC); type: cell-based; conditions: blood agar, 37° C., 24 or 48 hours
[3] = system: Streptococcus pyogenes 090R; test: Antimicrobial spectrum (MIC); type: cell-based; conditions: blood agar, 37° C., 24 or 48 hours
Salina lutea = test: Antimicrobial spectrum (MIC); type: cell-based
Bacillus subtilis PCI219 = test: Antimicrobial spectrum (MIC); type: cell-based; conditions: 1% glucose nutrient agar, 37° C., 24 or 48 hours
bacillus cereus = test: Antimicrobial spectrum (MIC); type: cell-based; conditions: 1% glucose nutrient agar, 37° C., 24 or 48 hours
[4] = system: Corynebacterium dephtheriae; test: Antimicrobial spectrum (MIC); type: cell-based
Corynebacterium xerosis = test: Antimicrobial spectrum (MIC); type: cell-based; conditions: 1% glucose nutrient agar, 37° C., 24 or 48 hours
Mycobacterium sp. 607 = test: Antimicrobial spectrum (MIC); type: cell-based; conditions: 3% glycerol nutrient agar (acid-fast bacteria), 37° C., 24 or 48 hours
Mycobacterium phlei = test: Antimicrobial spectrum (MIC); type: cell-based; conditions: 3% glycerol nutrient agar (acid-fast bacteria), 37° C., 24 or 48 hours
Mycobacterium avium = test: Antimicrobial spectrum (MIC); type: cell-based; conditions: 3% glycerol nutrient agar (acid-fast bacteria), 37° C., 24 or 48 hours
Nocardia asteroides = test: Antimicrobial spectrum (MIC); type: cell-based; conditions: 37° C., 24 or 48 hours
[5] = system: Shigella dysenteriae Shiga; test: microbe, parasite or virus in culture; type: cell-based
Klebsiella pneumoniae = test: Antimicrobial spectrum (MIC); type: cell-based; conditions: 1% glucose nutrient agar, 37° C., 24 or 48 hours
Brucella abortus = test: microbe, parasite or virus in culture; type: cell-based
Pseudomonas aeruginosa = test: Antimicrobial spectrum (MIC); type: cell-based; conditions: 1% glucose nutrient agar, 37° C., 24 or 48 hours
[6] = Biological activity compared between saframycins
various microorganisms = test: Growth inhibition of various microorganisms; type: cell-based; conditions: at low concentrations
leukemia L1210 = test: Antitumor activity, leukemia L1210; type: in vivo; conditions: mouse tumor
leukemia P388 = test: Antitumor activity, leukemia P388; type: in vivo; conditions: mouse tumor
melanoma B16 = test: Antitumor activity, melanoma B16; type: in vivo; conditions: mouse tumor
Ehrlich's ascites tumor = test: Antitumor activity, Ehrlich's ascites tumor; type: in vivo; conditions: mouse tumor
S-180 solid cancer = test: Antitumor activity, S-180 solid cancer; type: in vivo; conditions: mouse tumor
gastric cancer of man = test: Growth inhibition of gastric cancer of man heterotransplanted to the nude mouse; type: in vivo
[7] = system: DNA of transplantable cancer cells; test: Mechanism of action: reaction with DNA of transplantable cancer cells
[8] = system: synthesis of ribosomal RNA and messenger RNA; test: Mechanism of action: synthesis of ribosomal RNA and messenger RNA; conditions: transplantable cancer cells
[9] = system: RNA synthesis (Escherichia coli RNA polymerase, calf thymus DNA); test: RNA synthesis in in vitro reaction mixture; type: biochemical
tumor = conditions: Japanese Patent Lay Open No. 44098/1979; cited from earlier work
[10] = system: Staphylococcus aureus 209P; test: Antimicrobial spectrum (MIC); type: cell-based; conditions: 1% glucose nutrient agar, 37° C., 24 or 48 hours
[11] = system: Staphylococcus salivarius; test: Antimicrobial spectrum (MIC); type: cell-based; conditions: 1% glucose nutrient agar, 37° C., 24 or 48 hours
Escherichia coli = test: Antimicrobial spectrum (MIC); type: cell-based; conditions: 1% glucose nutrient agar, 37° C., 24 or 48 hours
Salmonella typhimurium = test: Antimicrobial spectrum (MIC); type: cell-based; conditions: 1% glucose nutrient agar, 37° C., 24 or 48 hours
Serratia marcescens = test: Antimicrobial spectrum (MIC); type: cell-based; conditions: 1% glucose nutrient agar, 37° C., 24 or 48 hours
Aspergillus oryzae = test: Antimicrobial spectrum (MIC); type: cell-based; conditions: Sabouraud dextrose agar, 27° C., 48 hours
Excerpt: (§1) Medium and culture condition:

Mucor mucedo = test: Antimicrobial spectrum (MIC); type: cell-based; conditions: Sabouraud dextrose agar, 27° C., 48 hours
Excerpt: as §1

Pencillium glaucum = test: Antimicrobial spectrum (MIC); type: cell-based; conditions: Sabouraud dextrose agar, 27° C., 48 hours
Excerpt: as §1

Rhodotorula glutinis = test: Antimicrobial spectrum (MIC); type: cell-based; conditions: Sabouraud dextrose agar, 27° C., 48 hours
Excerpt: as §1

Saccharomyces cerevisiae = test: Antimicrobial spectrum (MIC); type: cell-based; conditions: Sabouraud dextrose agar, 27° C., 48 hours
Excerpt: as §1

[12] = system: Trichophyton mentagrophytes; test: Antimicrobial spectrum (MIC); type: cell-based; conditions: Sabouraud dextrose agar, 27° C., 48 hours
Excerpt: as §1

male DDY strain mice = test: Acute toxicity LD50 in male DDY strain mice; type: in vivo, mouse; conditions: male DDY mice 18-20 g
[13] = system: mouse lymphoid leukemia P388; test: Effects on mouse lymphoid leukemia P388 in BDF1 mice; type: in vivo; conditions: for survival period of treated group over survival period of control group: i.p., 1×10^6 cells i.p., BDF1 mice; for increase of survival period: treatment 1-10 diseased days, 1×10^6 cells
Excerpt: The effects of saframycin S on mouse lymphoid leukemia P388 were studied with BDF1 mice.

[14] = system: gram-positive bacteria and some acidfast bacteria or gram-negative bacteria; test: Antibacterial activity, summary of spectrum; type: cell-based
transplantable tumors = test: Activity against transplantable tumors; conditions: in vivo
Aspergillus niger = test: Antimicrobial spectrum (MIC); conditions: Sabouraud dextrose agar, 27° C., 48 hours
Candida albicans 7N = test: Antimicrobial spectrum (MIC); conditions: Sabouraud dextrose agar, 27° C., 48 hours
[15] = 1% glucose nutrient agar, 37° C., 24 or 48 hours

## COC1=C(C)C(=O)C2=C(C1=O)C1C3CC4=C(C(=O)C(OC)=C(C)C4=O)C(CNC(=O)C(C)=O)N3C(C#N)C(C2)N1C (centres unmarked) [Saframycin A, reference compound]
[1]; Staphylococcus aureus, read-out: MIC
  MIC: 0.025 µg/mL (≈ 0.0444 µM)
Staphylococcus albus; Staphylococcus, read-out: MIC
  MIC: 0.006 µg/mL (≈ 0.0107 µM)
Staphylococcus citreus; Staphylococcus, read-out: MIC
  MIC: 0.006 µg/mL (≈ 0.0107 µM)
Streptococcus faecalis; Enterococcus faecalis, read-out: MIC
  MIC: 1.56 µg/mL (≈ 2.77 µM)
[2]; Streptococcus pyogenes, read-out: MIC
  MIC: 1.56 µg/mL (≈ 2.77 µM)
[3]; Streptococcus pyogenes, 090R, read-out: MIC
  MIC: 3 µg/mL (≈ 5.33 µM)
Salina lutea
  MIC: 0.006 µg/mL (≈ 0.0107 µM)
Bacillus subtilis PCI219; Bacillus subtilis, PCI219, read-out: MIC
  MIC: 0.025 µg/mL (≈ 0.0444 µM)
Bacillus cereus; Bacillus cereus, read-out: MIC
  MIC: 0.4 µg/mL (≈ 0.711 µM)
[4]; Corynebacterium
  MIC: 0.001 µg/mL (≈ 0.00178 µM)
Corynebacterium xerosis; Corynebacterium xerosis, read-out: MIC
  MIC: 0.012 µg/mL (≈ 0.0213 µM)
Mycobacterium sp. 607; Mycobacterium, SP.607, read-out: MIC
  MIC: 1.56 µg/mL (≈ 2.77 µM)
Mycobacterium phlei; Mycolicibacterium phlei, read-out: MIC
  MIC: 1.56 µg/mL (≈ 2.77 µM)
Mycobacterium avium; Mycobacterium avium, read-out: MIC
  MIC: 100 µg/mL (≈ 178 µM)
Nocardia asteroides; Nocardia asteroides, read-out: MIC
  MIC: 50 µg/mL (≈ 88.9 µM)
[5]; Shigella dysenteriae
  MIC: 1.56 µg/mL (≈ 2.77 µM)
Klebsiella pneumoniae; Klebsiella pneumoniae, read-out: MIC
  MIC: 1.56 µg/mL (≈ 2.77 µM)
Brucella abortus; Brucella abortus
  MIC: 1.56 µg/mL (≈ 2.77 µM)
Pseudomonas aeruginosa; Pseudomonas aeruginosa, read-out: MIC
  MIC: 100 µg/mL (≈ 178 µM)
[6]; among saframycins A-E
  biological activity among saframycins A-E: highest biological activity
Various microorganisms
  inhibition of growth of various microorganisms: effective in inhibiting the growth of various microorganisms at low concentrations
Leukemia L1210
  effect on leukemia L1210: effective
Leukemia P388
  effect on leukemia P388: effective
Melanoma B16
  effect on melanoma B16: effective
Ehrlich's ascites tumor
  effect on Ehrlich's ascites tumor: effective
S-180 solid cancer
  effect on S-180 solid cancer: effective
Gastric cancer of man
  inhibition of growth of gastric cancer of man: effective in inhibiting the growth of gastric cancer of man
[7]
  reaction with DNA, inhibition of template activity: specifically reacted with DNA of transplantable cancer cells to inhibit their template activity
[8]
  synthesis of ribosomal RNA and messenger RNA: prevented synthesis of ribosomal RNA and messenger RNA
[9]; Escherichia coli RNA polymerase, calf thymus DNA, RNA precursor, no reducing agent
  inhibition of RNA synthesis in vitro: did not inhibit RNA synthesis
[9]; with dithiothreitol (DTT) and other reducing agent
  inhibition of RNA synthesis in vitro: RNA synthesis inhibition equivalent to in vivo effect was observed
tumor
  antitumor effect: strong antitumor effect

## COC1=C(C)C(=O)C2=C(C1=O)[C@@H]1[C@@H]3CC4=C(C(=O)C(OC)=C(C)C4=O)[C@H](CNC(=O)C(C)=O)N3[C@@H](O)[C@H](C2)N1C [Saframycin S]
[10]
  MIC: 0.01 µg/mL (≈ 0.0181 µM)
[1]
  MIC: 0.001 µg/mL (≈ 0.00181 µM)
Staphylococcus albus
  MIC: 0.001 µg/mL (≈ 0.00181 µM)
Staphylococcus citreus
  MIC: 0.001 µg/mL (≈ 0.00181 µM)
Streptococcus faecalis
  MIC: 1.56 µg/mL (≈ 2.82 µM)
[2]
  MIC: 0.05 µg/mL (≈ 0.0903 µM)
[3]
  MIC: 0.05 µg/mL (≈ 0.0903 µM)
[11]
  MIC: 25.0 µg/mL (≈ 45.2 µM)
Salina lutea; [15]
  MIC: 0.006 µg/mL (≈ 0.0108 µM)
Bacillus subtilis PCI219
  MIC: 0.025 µg/mL (≈ 0.0452 µM)
Bacillus cereus
  MIC: 0.4 µg/mL (≈ 0.723 µM)
[4]; [15]
  MIC: 0.001 µg/mL (≈ 0.00181 µM)
Corynebacterium xerosis
  MIC: 0.001 µg/mL (≈ 0.00181 µM)
Mycobacterium sp. 607
  MIC: 1.56 µg/mL (≈ 2.82 µM)
Mycobacterium phlei
  MIC: 0.8 µg/mL (≈ 1.45 µM)
Mycobacterium avium
  MIC: 50.0 µg/mL (≈ 90.3 µM)
Nocardia asteroides
  MIC: 6.25 µg/mL (≈ 11.3 µM)
Escherichia coli
  MIC: 25.0 µg/mL (≈ 45.2 µM)
Salmonella typhimurium
  MIC: 100 µg/mL (≈ 181 µM)
[5]; [15]
  MIC: 1.56 µg/mL (≈ 2.82 µM)
Klebsiella pneumoniae
  MIC: 1.56 µg/mL (≈ 2.82 µM)
Brucella abortus; blood agar, 37° C., 24 or 48 hours
  MIC: 0.8 µg/mL (≈ 1.45 µM)
Serratia marcescens
  MIC: 50.0 µg/mL (≈ 90.3 µM)
Pseudomonas aeruginosa
  MIC: 100 µg/mL (≈ 181 µM)
Aspergillus oryzae
  MIC: 100 µg/mL (≈ 181 µM)
Mucor mucedo
  MIC: 100 µg/mL (≈ 181 µM)
Pencillium glaucum
  MIC: 100 µg/mL (≈ 181 µM)
Rhodotorula glutinis
  MIC: 100 µg/mL (≈ 181 µM)
Saccharomyces cerevisiae
  MIC: 50 µg/mL (≈ 90.3 µM)
[12]
  MIC: 50 µg/mL (≈ 90.3 µM)
Male DDY strain mice; intraperitoneal injection
  LD50: 2.5 mg/kg
Male DDY strain mice; intravenous injection
  LD50: 0.83 mg/kg
[13]; 0.5 mg/kg daily for 10 days
  survival period of treated group over survival period of control group: 146.2%
[13]; 0.5 mg/kg/day
  increase of survival period: 46.2%
[13]; 0.75 mg/kg daily for 10 days
  survival period of treated group over survival period of control group: 157.7%
[13]; 0.75 mg/kg/day
  increase of survival period: 57.7%
[13]; 1.0 mg/kg daily for 10 days
  survival period of treated group over survival period of control group: 161.5%
[13]; 1.0 mg/kg/day
  increase of survival period: 61.5%
[13]; 1.5 mg/kg daily for 10 days
  survival period of treated group over survival period of control group: 182.7%
[13]; 1.5 mg/kg/day
  increase of survival period: 82.7%
[14]
  antibacterial activity: antibacterial activities mainly against gram-positive bacteria; also recorded: antibacterial activity mainly against gram-positive bacteria and some acidfast bacteria or gram-negative bacteria such as Mycobacterium, Shigella dysenteriae Shiga and Brucella
[6]; compared with saframycin A
  biological activities relative to saframycin A: still more powerful biological activities in every point than saframycin A; also recorded: almost equal to that of saframycin A
Transplantable tumors
  activity against transplantable tumors: activity against transplantable tumors
Aspergillus niger
  MIC: > 100 µg/mL
Candida albicans 7N
  MIC: > 100 µg/mL
